Assays:
Type in all cases: functional, cell-based
[1] = system: CaR-1; assay: cells; conditions: Homo sapiens;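 also: growth inhibition of human CaR-1 cancer cells, read out with a cell viability assay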
Description: SANGER: Inhibition of human CaR-1 cell growth in a cell viability assay.

[2] = system: HT-1376; assay: cells; conditions: Homo sapiens
Description: SANGER: Inhibition of human HT-1376 cell growth in a cell viability assay.

[3] = system: SN12C; assay: cells; conditions: Homo sapiens;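 also: growth inhibition of human SN12C cells, measured by a cell viability assay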
Description: SANGER: Inhibition of human SN12C cell growth in a cell viability assay.

[4] = system: SK-N-AS; assay: cells; conditions: Homo sapiens;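 also: growth inhibition of human SK-N-AS cells, measured with a cell viability assay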
Description: SANGER: Inhibition of human SK-N-AS cell growth in a cell viability assay.

[5] = system: HSC-2; assay: cells; conditions: Homo sapiens;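 also: growth inhibition of human HSC-2 cells, read out by a cell viability assay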
Description: SANGER: Inhibition of human HSC-2 cell growth in a cell viability assay.

[6] = system: HSC-3; assay: cells; conditions: Homo sapiens
Description: SANGER: Inhibition of human HSC-3 cell growth in a cell viability assay.

[7] = system: SW1990; assay: cells; conditions: Homo sapiens
Description: SANGER: Inhibition of human SW1990 cell growth in a cell viability assay.

[8] = system: BT-20; assay: cells; conditions: Homo sapiens;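 also: cell viability assay measuring suppression of growth in human BT-20 cells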
Description: SANGER: Inhibition of human BT-20 cell growth in a cell viability assay.

[9] = system: SK-MEL-30; assay: cells; conditions: Homo sapiens;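 also: growth inhibition of SK-MEL-30 cells, determined with a cell viability assay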
Description: SANGER: Inhibition of human SK-MEL-30 cell growth in a cell viability assay.

[10] = system: BFTC-905; assay: cells; conditions: Homo sapiens
Description: SANGER: Inhibition of human BFTC-905 cell growth in a cell viability assay.

[11] = system: SCC-4; assay: cells; conditions: Homo sapiens;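 also: growth inhibition of human SCC-4 cells, read out as cell viability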
Description: SANGER: Inhibition of human SCC-4 cell growth in a cell viability assay.

[12] = system: NB12; assay: cells; conditions: Homo sapiens;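 also: growth inhibition of human NB12 cells, read out by a cell viability assay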
Description: SANGER: Inhibition of human NB12 cell growth in a cell viability assay.

[13] = system: SK-OV-3; assay: cells; conditions: Homo sapiens;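 also: growth inhibition of SK-OV-3 human cells, read out with a cell viability assay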
Description: SANGER: Inhibition of human SK-OV-3 cell growth in a cell viability assay.

[14] = system: NCI-H1793; assay: cells; conditions: Homo sapiens;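 also: cell growth inhibition, read out by a cell viability assay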
Description: SANGER: Inhibition of human NCI-H1793 cell growth in a cell viability assay.

[15] = system: 5637; assay: cells; conditions: Homo sapiens
Description: SANGER: Inhibition of human 5637 cell growth in a cell viability assay.

[16] = system: HO-1-N-1; assay: cells; conditions: Homo sapiens;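 also: growth inhibition of human HO-1-N-1 cells, read out with a cell viability assay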
Description: SANGER: Inhibition of human HO-1-N-1 cell growth in a cell viability assay.

[17] = system: 23132-87; assay: cells; conditions: Homo sapiens
Description: SANGER: Inhibition of human 23132-87 cell growth in a cell viability assay.

[18] = system: SW1783; assay: cells; conditions: Homo sapiens
Description: SANGER: Inhibition of human SW1783 cell growth in a cell viability assay.

[19] = system: FaDu; assay: cells; conditions: Homo sapiens;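 also: cell viability readout of growth inhibition in FaDu cells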
Description: SANGER: Inhibition of human FADU cell growth in a cell viability assay.

[20] = system: SW13; assay: cells; conditions: Homo sapiens;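 also: IC50 is inhibition of SW13 cell growth, read out with a cell viability assay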
Description: SANGER: Inhibition of human SW13 cell growth in a cell viability assay.

[21] = system: 8305C; assay: cells; conditions: Homo sapiens
Description: SANGER: Inhibition of human 8305C cell growth in a cell viability assay.

[22] = system: NCI-H28; assay: cells; conditions: Homo sapiens;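 also: growth inhibition of human NCI-H28 cells, read out as cell viability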
Description: SANGER: Inhibition of human NCI-H28 cell growth in a cell viability assay.

[23] = system: SiHa; assay: cells; conditions: Homo sapiens;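 also: Viability-based readout of growth inhibition in SiHa cells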
Description: SANGER: Inhibition of human SiHa cell growth in a cell viability assay.

[24] = system: ACHN; assay: cells; conditions: Homo sapiens;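 also: cell viability read-out used to gauge how strongly growth of human ACHN cells is suppressed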
Description: SANGER: Inhibition of human ACHN cell growth in a cell viability assay.

[25] = system: D-247MG; assay: cells; conditions: Homo sapiens
Description: SANGER: Inhibition of human D-247MG cell growth in a cell viability assay.

[26] = system: DoTc2-4510; assay: cells; conditions: Homo sapiens
[27] = system: VMRC-RCZ; assay: cells; conditions: Homo sapiens
Description: SANGER: Inhibition of human VMRC-RCZ cell growth in a cell viability assay.

[28] = system: 639-V; assay: cells; conditions: Homo sapiens;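 also: growth inhibition of 639-V cells, read out with a cell viability assay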
Description: SANGER: Inhibition of human 639-V cell growth in a cell viability assay.

[29] = system: COLO-680N; assay: cells; conditions: Homo sapiens;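 also: cell viability assay used to measure inhibition of COLO-680N cell growth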
Description: SANGER: Inhibition of human COLO-680N cell growth in a cell viability assay.

[30] = system: U-118-MG; assay: cells; conditions: Homo sapiens
Description: SANGER: Inhibition of human U-118-MG cell growth in a cell viability assay.

[31] = system: SCC-9; assay: cells; conditions: Homo sapiens;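 also: Read-out is a cell viability assay, with values giving inhibition of cell growth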
Description: SANGER: Inhibition of human SCC-9 cell growth in a cell viability assay.

[32] = system: Calu-3; assay: cells; conditions: Homo sapiens;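 also: growth inhibition of human Calu-3 cells, determined with a cell viability assay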
Description: SANGER: Inhibition of human Calu-3 cell growth in a cell viability assay.

[33] = system: UMC-11; assay: cells; conditions: Homo sapiens;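 also: growth inhibition of UMC-11 cells, read out with a cell viability assay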
Description: SANGER: Inhibition of human UMC-11 cell growth in a cell viability assay.

[34] = system: CAPAN-1; assay: cells; conditions: Homo sapiens;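 also: growth suppression of CAPAN-1 cells, read out by a cell viability assay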
Description: SANGER: Inhibition of human CAPAN-1 cell growth in a cell viability assay.

[35] = system: NY; assay: cells; conditions: Homo sapiens
Description: SANGER: Inhibition of human NY cell growth in a cell viability assay.

[36] = system: NCI-H2170; assay: cells; conditions: Homo sapiens;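 also: cell viability assay measuring growth inhibition of human NCI-H2170 cancer cells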
Description: SANGER: Inhibition of human NCI-H2170 cell growth in a cell viability assay.

[37] = system: SW1088; assay: cells; conditions: Homo sapiens;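 also: growth inhibition of human SW1088 cells, read out by a cell viability assay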
Description: SANGER: Inhibition of human SW1088 cell growth in a cell viability assay.

[38] = system: NCI-H596; assay: cells; conditions: Homo sapiens;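 also: growth inhibition of NCI-H596 cells, read out with a cell viability assay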
Description: SANGER: Inhibition of human NCI-H596 cell growth in a cell viability assay.

[39] = system: 769-P; assay: cells; conditions: Homo sapiens
Description: SANGER: Inhibition of human 769-P cell growth in a cell viability assay.

[40] = system: NCI-H1623; assay: cells; conditions: Homo sapiens;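 also: cell viability assay used as the read-out for growth inhibition of NCI-H1623 cells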
Description: SANGER: Inhibition of human NCI-H1623 cell growth in a cell viability assay.

[41] = system: D-392MG; assay: cells; conditions: Homo sapiens
[42] = system: HCT-15; assay: cells; conditions: Homo sapiens;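 also: cell viability readout, IC50 reflecting suppression of HCT-15 cell growth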
Description: SANGER: Inhibition of human HCT-15 cell growth in a cell viability assay.

[43] = system: MDA-MB-361; assay: cells; conditions: Homo sapiens
[44] = system: SF-295; assay: cells; conditions: Homo sapiens;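 also: growth inhibition of SF-295 cells, read out with a cell viability assay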
Description: SANGER: Inhibition of human SF295 cell growth in a cell viability assay.

[45] = system: A2058; assay: cells; conditions: Homo sapiens;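 also: reduction of A2058 cell growth, read out with a viability assay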
Description: SANGER: Inhibition of human A2058 cell growth in a cell viability assay.

[46] = system: MFE-280; assay: cells; conditions: Homo sapiens;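 also: growth inhibition of MFE-280 cells, determined with a cell viability readout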
Description: SANGER: Inhibition of human MFE-280 cell growth in a cell viability assay.

[47] = system: G-401; assay: cells; conditions: Homo sapiens
Description: SANGER: Inhibition of human G-401 cell growth in a cell viability assay.

[48] = system: NCI-H630; assay: cells; conditions: Homo sapiens;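 also: growth inhibition of NCI-H630 cells, read out with a cell viability assay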
Description: SANGER: Inhibition of human NCI-H630 cell growth in a cell viability assay.

[49] = system: MDA-MB-415; assay: cells; conditions: Homo sapiens
[50] = system: SW948; assay: cells; conditions: Homo sapiens;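 also: growth inhibition of SW948 cells, read out with a cell viability assay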
Description: SANGER: Inhibition of human SW948 cell growth in a cell viability assay.

[51] = system: NCI-H358; assay: cells; conditions: Homo sapiens;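 also: growth inhibition of NCI-H358 human cells, read out with a cell viability assay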
Description: SANGER: Inhibition of human NCI-H358 cell growth in a cell viability assay.

[52] = system: Capan-2; assay: cells; conditions: Homo sapiens;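 also: Capan-2 cell growth inhibition, read out with a viability assay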
Description: SANGER: Inhibition of human Capan-2 cell growth in a cell viability assay.

[53] = system: UACC-893; assay: cells; conditions: Homo sapiens
Description: SANGER: Inhibition of human UACC-893 cell growth in a cell viability assay.

[54] = system: HCC2157; assay: cells; conditions: Homo sapiens;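 also: growth inhibition of the cancer cell line, read out as cell viability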
Description: SANGER: Inhibition of human HCC2157 cell growth in a cell viability assay.

[55] = system: BEN; assay: cells; conditions: Homo sapiens;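 also: growth inhibition of the BEN cell line, read out with a cell viability assay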
Description: SANGER: Inhibition of human BEN cell growth in a cell viability assay.

[56] = system: HCC1569; assay: cells; conditions: Homo sapiens;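 also: growth inhibition of human HCC1569 cells, read out with a cell viability assay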
Description: SANGER: Inhibition of human HCC1569 cell growth in a cell viability assay.

[57] = system: RPMI-6666; assay: cells; conditions: Homo sapiens
Description: SANGER: Inhibition of human RPMI-6666 cell growth in a cell viability assay.

[58] = system: IM-9; assay: SANGER: Inhibition of human IM-9 cell growth in a cell viability assay.
[59] = system: NCI-H719; assay: cells; conditions: Homo sapiens;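 also: growth inhibition of the cultured cell line, read out with a viability assay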
Description: SANGER: Inhibition of human NCI-H719 cell growth in a cell viability assay.

[60] = system: SCLC-21H; assay: cells; conditions: Homo sapiens;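 also: growth inhibition of cultured human SCLC-21H cells, read out with a cell viability assay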
Description: SANGER: Inhibition of human SCLC-21H cell growth in a cell viability assay.

[61] = system: NCI-H1882; assay: cells; conditions: Homo sapiens;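 also: growth inhibition of the cell line, determined with a viability assay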
Description: SANGER: Inhibition of human NCI-H1882 cell growth in a cell viability assay.

[62] = system: LC4-1; assay: cells; conditions: Homo sapiens;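 also: growth inhibition of LC4-1 cells, read out with a cell viability assay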
Description: SANGER: Inhibition of human LC4-1 cell growth in a cell viability assay.

[63] = system: SR; assay: cells; conditions: Homo sapiens
Description: SANGER: Inhibition of human SR cell growth in a cell viability assay.

[64] = system: WSU-NHL; assay: cells; conditions: Homo sapiens;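 also: growth inhibition of human WSU-NHL cells, read out with a cell viability assay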
Description: SANGER: Inhibition of human WSU-NHL cell growth in a cell viability assay.

CC[C@@]1(O)C(=O)OCc2c1cc1n(c2=O)Cc2cc3ccccc3nc2-1 [CAMPTOTHECIN]
IC50 [1]: 0.00643 µM | IC50 [2]: > 0.1 µM | IC50 [3]: 0.0045 µM | IC50 [4]: 0.00538 µM | IC50 [5]: 0.0117 µM | IC50 [6]: 0.00302 µM | IC50 [7]: 0.0379 µM | IC50 [8]: 0.026 µM | IC50 [9]: > 0.1 µM | IC50 [10]: 0.00014 µM | IC50 [11]: 0.0193 µM | IC50 [12]: 0.044 µM | IC50 [13]: > 0.1 µM | IC50 [14]: 0.0272 µM | IC50 [15]: 0.00418 µM | IC50 [16]: 0.000838 µM | IC50 [17]: 0.0195 µM | IC50 [18]: 0.0246 µM | IC50 [19]: 0.000539 µM | IC50 [20]: 0.00299 µM | IC50 [21]: 0.094 µM | IC50 [22]: 0.0387 µM | IC50 [23]: 0.0869 µM | IC50 [24]: 0.00666 µM | IC50 [25]: 0.0395 µM | IC50 [26]: 0.00403 µM | IC50 [27]: 0.0473 µM | IC50 [28]: 0.000171 µM | IC50 [29]: 0.0724 µM | IC50 [30]: 0.019 µM | IC50 [31]: 0.0332 µM | IC50 [32]: 0.0328 µM | IC50 [33]: > 0.1 µM | IC50 [34]: 0.015 µM | IC50 [35]: > 0.1 µM | IC50 [36]: 0.0137 µM | IC50 [37]: 0.0278 µM | IC50 [38]: > 0.1 µM | IC50 [39]: 0.0253 µM | IC50 [40]: 0.000748 µM | IC50 [41]: 0.0177 µM | IC50 [42]: > 0.1 µM | IC50 [43]: 0.0344 µM | IC50 [44]: 0.00791 µM | IC50 [45]: 0.0036 µM | IC50 [46]: 0.0216 µM | IC50 [47]: 0.0192 µM

Cn1c(=O)n(-c2ccc(C(C)(C)C#N)cc2)c2c3cc(-c4cnc5ccccc5c4)ccc3ncc21 [DACTOLISIB]
IC50 [1]: 0.0682 µM | IC50 [2]: 0.385 µM | IC50 [3]: 0.0906 µM | IC50 [4]: 0.137 µM | IC50 [5]: 0.0959 µM | IC50 [48]: 0.913 µM | IC50 [6]: 0.0122 µM | IC50 [7]: 0.109 µM | IC50 [8]: 0.112 µM | IC50 [9]: 0.196 µM | IC50 [10]: 0.0607 µM | IC50 [11]: 0.0714 µM | IC50 [12]: 0.528 µM | IC50 [49]: 0.177 µM | IC50 [50]: > 2 µM | IC50 [13]: 0.1 µM | IC50 [14]: 0.0128 µM | IC50 [15]: 0.0792 µM | IC50 [16]: 0.0252 µM | IC50 [18]: 0.11 µM | IC50 [19]: 0.267 µM | IC50 [20]: 0.0665 µM | IC50 [21]: 0.0419 µM | IC50 [22]: 0.0344 µM | IC50 [23]: 0.329 µM | IC50 [24]: 0.357 µM | IC50 [51]: 1.96 µM | IC50 [52]: > 2 µM | IC50 [25]: 0.135 µM | IC50 [26]: 1.07 µM | IC50 [27]: 0.0156 µM | IC50 [28]: 0.0854 µM | IC50 [29]: 0.111 µM | IC50 [30]: 0.134 µM | IC50 [31]: 0.293 µM | IC50 [32]: 0.072 µM | IC50 [53]: 0.406 µM | IC50 [33]: 0.458 µM | IC50 [34]: > 2 µM | IC50 [35]: 1.17 µM | IC50 [36]: 0.115 µM | IC50 [37]: 0.0283 µM | IC50 [38]: 0.228 µM | IC50 [39]: 0.0104 µM | IC50 [40]: 0.0478 µM | IC50 [41]: 0.108 µM | IC50 [54]: 0.128 µM | IC50 [43]: 0.061 µM | IC50 [44]: 0.0189 µM | IC50 [45]: 0.0332 µM | IC50 [46]: 0.00999 µM | IC50 [55]: 0.0316 µM | IC50 [56]: 0.276 µM | IC50 [47]: 0.0408 µM

Cc1nc(Nc2ncc(C(=O)Nc3c(C)cccc3Cl)s2)cc(N2CCN(CCO)CC2)n1 [DASATINIB]
IC50 [57]: > 1.28 µM | IC50 [25]: > 1.28 µM | IC50 [58]: > 1.28 µM | IC50 [59]: > 1.28 µM | IC50 [60]: > 1.28 µM | IC50 [61]: > 1.28 µM | IC50 [62]: > 1.28 µM | IC50 [54]: > 1.28 µM | IC50 [63]: > 1.28 µM | IC50 [64]: > 1.28 µM

CC(=O)c1c(C)c2cnc(Nc3ccc(N4CCNCC4)cn3)nc2n(C2CCCC2)c1=O [PALBOCICLIB]
IC50 [1]: > 4 µM | IC50 [2]: > 4 µM | IC50 [3]: 1.01 µM | IC50 [4]: 0.388 µM | IC50 [5]: > 4 µM | IC50 [48]: > 4 µM | IC50 [6]: 0.966 µM | IC50 [7]: > 4 µM | IC50 [8]: > 4 µM | IC50 [9]: > 4 µM | IC50 [10]: 1.24 µM | IC50 [11]: > 4 µM | IC50 [12]: > 4 µM | IC50 [49]: > 4 µM | IC50 [50]: > 4 µM | IC50 [13]: > 4 µM | IC50 [14]: > 4 µM | IC50 [15]: > 4 µM | IC50 [16]: 0.963 µM | IC50 [18]: > 4 µM | IC50 [19]: > 4 µM | IC50 [21]: > 4 µM | IC50 [22]: > 4 µM | IC50 [23]: > 4 µM | IC50 [52]: > 4 µM | IC50 [25]: > 4 µM | IC50 [26]: > 4 µM | IC50 [27]: 3.36 µM | IC50 [28]: > 4 µM | IC50 [29]: > 4 µM | IC50 [30]: > 4 µM | IC50 [31]: > 4 µM | IC50 [32]: > 4 µM | IC50 [33]: > 4 µM | IC50 [34]: > 4 µM | IC50 [35]: > 4 µM | IC50 [36]: > 4 µM | IC50 [37]: 3.47 µM | IC50 [38]: > 4 µM | IC50 [39]: > 4 µM | IC50 [40]: > 4 µM | IC50 [41]: > 4 µM | IC50 [54]: > 4 µM | IC50 [43]: > 4 µM | IC50 [44]: > 4 µM | IC50 [46]: > 4 µM | IC50 [55]: > 4 µM | IC50 [56]: > 4 µM | IC50 [47]: 1.92 µM

— ChEMBL document CHEMBL1201861, “Genomics of Drug Sensitity in Cancer screening data, Wellcome Trust Sanger Institute”
